Values joined by “and” are separate entries in the source; they are usually repeats but may differ in a detail not shown here. Equal entries are not always repeated. “Also recorded” adds a separate entry of the source. Structures can show the parent of a compound that is named as a salt.

The target in one test is T1, human TLR8 (Homo sapiens, UniProt Q9NR97).
T1 construct: expressed in transfected cells; host or cells: HEK293
T1 sequence (Q9NR97 27-1041): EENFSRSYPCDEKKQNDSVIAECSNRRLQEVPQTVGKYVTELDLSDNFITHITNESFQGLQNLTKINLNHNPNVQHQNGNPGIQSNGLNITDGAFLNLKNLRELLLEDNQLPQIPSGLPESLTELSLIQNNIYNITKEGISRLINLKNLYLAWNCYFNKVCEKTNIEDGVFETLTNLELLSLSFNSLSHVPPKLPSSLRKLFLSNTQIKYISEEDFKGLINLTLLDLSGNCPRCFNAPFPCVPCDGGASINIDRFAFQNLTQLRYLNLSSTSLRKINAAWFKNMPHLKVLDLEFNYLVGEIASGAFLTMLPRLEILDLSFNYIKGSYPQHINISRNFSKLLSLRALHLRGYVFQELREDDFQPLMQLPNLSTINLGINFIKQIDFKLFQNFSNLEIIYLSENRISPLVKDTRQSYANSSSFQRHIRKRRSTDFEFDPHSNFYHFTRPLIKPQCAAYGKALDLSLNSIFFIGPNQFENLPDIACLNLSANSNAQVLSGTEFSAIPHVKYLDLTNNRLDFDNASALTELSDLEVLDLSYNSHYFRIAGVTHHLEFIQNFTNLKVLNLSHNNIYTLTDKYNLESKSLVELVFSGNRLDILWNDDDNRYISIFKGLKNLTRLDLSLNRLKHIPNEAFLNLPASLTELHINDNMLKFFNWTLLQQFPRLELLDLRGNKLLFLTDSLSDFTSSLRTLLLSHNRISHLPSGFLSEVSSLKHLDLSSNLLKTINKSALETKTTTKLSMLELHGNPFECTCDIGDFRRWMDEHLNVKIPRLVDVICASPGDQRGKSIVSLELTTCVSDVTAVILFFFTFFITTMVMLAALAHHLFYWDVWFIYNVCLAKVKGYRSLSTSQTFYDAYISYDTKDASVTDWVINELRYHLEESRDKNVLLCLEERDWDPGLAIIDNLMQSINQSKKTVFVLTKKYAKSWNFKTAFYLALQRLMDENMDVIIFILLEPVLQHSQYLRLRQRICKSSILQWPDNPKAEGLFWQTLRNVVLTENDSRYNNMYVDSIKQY
Briefly: Human TLR8-specific reporter gene assay (NF-κB induction, sAP) in HEK293 cells. It counts as cell-based. To be noted: primary screen, HEK293 hTLR8 reporter cells; read-out: EC50, TLR8 agonistic activity (hTLR8-specific NF-κB induction). The text has this: Human TLR8-Specific Reporter Gene Assays (NF-κB Induction), and TLR-2/-3/-4/-5/-7/-9 Counter-Screens:
The induction of NF-κB was quantified using human TLR-2/-3/-4/-5/-7/-8/-9-specific, rapid-throughput, liquid handler-assisted reporter gene assays as previously described by us.^31,25, 32,33 HEK293 cells stably co-transfected with the appropriate hTLR and secreted alkaline phosphatase (sAP) were maintained in HEK-Blue™ Selection medium. Stable expression of secreted alkaline phosphatase (sAP) under control of NF-κB/AP-1 promoters is inducible by appropriate TLR agonists, and extracellular sAP in the supernatant is proportional to NF-κB induction. Reporter cells were incubated at a density of ˜10^5 cells/ml in a volume of 80 μl/well, in 384-well, flat-bottomed, cell culture-treated microtiter plates in the presence of graded concentrations of stimuli. sAP was assayed spectrophotometrically using an alkaline phosphatase-specific chromogen (present in HEK-detection medium as supplied by InvivoGen) at 620 nm.
For orientation: A reporter such as luciferase makes a cellular process visible.
For the molecule `CCCCNc1cc(C)nc(N)n1` [Compound 15, N^4-Butyl-6-methylpyrimidine-2,4-diamine], the EC50 was found to be 22000 nM.
On the same count and under the same terms, then `CCCCNc1ccnc(N)n1` [Compound 16, N^4-Butylpyrimidine-2,4-diamine], with 73200 nM; and `CCCCNc1nc(N)nc(C)c1CCCN.Cl.Cl` [Compound 27a, 5-(3-Aminopropyl)-N^4-butyl-6-methylpyrimidine-2,4-diamine dihydrochloride], with 2310 nM.
In the case of `CCCCNc1nc(N)nc(-c2ccccc2)c1CCCCN.Cl.Cl` [Compound 32b, 5-(4-Aminobutyl)-N^4-butyl-6-phenylpyrimidine-2,4-diamine dihydrochloride], the concentration for a half-maximal effect (EC50) was 2700 nM.
As for `CCCCNc1nc(N)nc(-c2ccccc2)c1CCCCCN` [Compound 32c, 5-(5-Aminopentyl)-N^4-butyl-6-phenylpyrimidine-2,4-diamine dihydrochloride], the EC50 came out at 2350 nM.

Still in this test, the particulars now being: primary screen, reporter gene assay.
For `CCCCN(C)c1nc(N)nc(C)c1I` [Compound 4e, N^4-Butyl-5-iodo-N^4,6-dimethylpyrimidine-2,4-diamine], the “TLR8-agonistic activity (in words)” value was “abrogated activity”.
As for `CCCCN(Cc1ccccc1)c1nc(N)nc(C)c1I` [Compound 4f, N^4-Benzyl-N^4-butyl-5-iodo-6-methylpyrimidine-2,4-diamine], the “TLR8-agonistic activity (in words)” value is “abrogated activity”.
Same read-out and setting: then `CCCCOc1nc(N)nc(C)c1I` [Compound 4g, 4-Butoxy-5-iodo-6-methylpyrimidin-2-amine], with “inactive”; and `CCCCSc1nc(N)nc(C)c1I` [Compound 4h, 4-(Butylthio)-5-iodo-6-methylpyrimidin-2-amine], with “inactive”.
Consider `CCCC#Cc1cc(C)nc(N)n1` [Compound 4i, 4-Methyl-6-(pent-1-yn-1-yl)pyrimidin-2-amine], for which the “TLR8-agonistic activity (in words)” value is “inactive”.
For the molecule `CCCCCc1cc(C)nc(N)n1` [Compound 4j, 4-Methyl-6-pentylpyrimidin-2-amine], the “TLR8-agonistic activity (in words)” value is “inactive”.
On the same count and under the same terms, the entry for `CCCCCc1nc(N)nc(C)c1I` [Compound 4k, 5-iodo-4-methyl-6-pentylpyrimidin-2-amine] is “inactive”.
Same read-out and setting: then `CCCCNc1nc(N)nc(C)c1Cl` [Compound 6a, N^4-Butyl-5-chloro-6-methylpyrimidine-2,4-diamine], with “substantial losses in potency”; and `CCCCNc1nc(N)nc(C)c1Br` [Compound 6b, 5-Bromo-N^4-butyl-6-methylpyrimidine-2,4-diamine], with “substantial losses in potency”.
Same read-out and setting: the entry for `CCCCNc1nc(N)nc(C)c1F` [Compound 6c, N^4-Butyl-5-fluoro-6-methylpyrimidine-2,4-diamine] is “substantial losses in potency”; for `CCCCNc1nc(N)ncc1I` [Compound 17, N^4-Butyl-5-iodopyrimidine-2,4-diamine] it is “entirely without measurable TLR8-agonistic activity”; for `CCCCNc1nc(N)nc(C)c1Cc1ccccc1` [Compound 24, 5-Benzyl-MN-butyl-6-methylpyrimidine-2,4-diamine] it is “diminution of activity, exhibiting greatly attenuated area-under-the curve”.
With `CCCCNc1nc(N)nc(C)c1CCCCCN.Cl.Cl` [Compound 27c, 5-(5-Aminopentyl)-MN-butyl-6-methylpyrimidine-2,4-diamine dihydrochloride], the “TLR8-agonistic activity (in words)” value is “appeared to plateau”.
In the case of `CCCCNc1nc(N)nc(-c2ccccc2)c1I` [Compound 29, N^4-Butyl-5-iodo-6-phenylpyrimidine-2,4-diamine], the “TLR8-agonistic activity (in words)” value was “inactive”.

Staying with this test, now noted: reference printed as 4b (22 μM).
As for `CCCCNc1nc(N)nc(C)c1CCCN.Cl.Cl` [Compound 27a, 5-(3-Aminopropyl)-N^4-butyl-6-methylpyrimidine-2,4-diamine dihydrochloride], the “fold increase in TLR8 potency relative to that of 4b (22 μM)” value is on record as “increased nearly ten-fold”.

The same test, now with this note: relative to 4b.
As for `CCCCNc1cc(C)nc(N)n1` [Compound 15, N^4-Butyl-6-methylpyrimidine-2,4-diamine], the “fold less active than 4b (TLR8 EC50)” value is “ca. fourteen-fold less active”.

Still in this test, the particulars now being: reporter gene assays with TLR-2/-3/-4/-5/-7/-9 counter-screens.
As to `CCCCNc1nc(N)nc(C)c1I` [Compound 4b, N^4-Butyl-5-iodo-6-methylpyrimidine-2,4-diamine], the “TLR8 specificity/selectivity (in words)” value is on record as “pure TLR8 agonist; also recorded: bona fide TLR8-specific agonist”.

For the next test, the system named is human peripheral blood mononuclear cells (hPBMC). Briefly: Multiplexed immunoassays for cytokine and chemokine induction in human PBMCs. To be noted: 41-analyte multiplexed immunoassay. It counts as cell-based. As for the experimental part: Immunoassays for Cytokines.
Fresh human peripheral blood mononuclear cells (hPBMC) were isolated from human blood obtained by venipuncture in Cell Preparation Tubes (CPT, Beckton-Dickinson) with informed consent and as per guidelines approved by the University of Minnesota Human Subjects Experimentation Committee. Aliquots of PBMCs (10^5 cells in 100 µL/well) were stimulated for 16 h with graded concentrations of test compounds. Supernatants were isolated by centrifugation, and were assayed in duplicates using analyte-specific multiplexed cytokine/chemokine bead array assays (HCYTMAG-60K-PX29 MILLIPLEX MAP Human Cytokine/Chemokine Magnetic Bead Panel, EMD Millipore, Billerica, Mass.) as reported by us previously.^19 The following analytes were quantified: sCD40L, VEGF, TNF-β, TNF-α. TGF-α, RANTES, PDGF-AB/BB, PDGF-AA, MIP-1β, MIP-1α, MDC (CCL22), MCP-3, MCP-1, IP-10, IL-17A, IL-15, IL-13, IL-12 (p70), IL-12 (p40). IL-10, IL-9, IL-8, IL-7, IL-6, IL-5, IL-4, IL-3, IL-2, IL-1 ra, IL-1β, IL-1α, IFN-γ, IFN-α2, GRO, GM-CSF, G-CSF, fractalkine, Fit-3 ligand, FGF-2, eotaxin, EGF.
With `CCCCNc1nc(N)nc(-c2ccccc2)c1CCCCN.Cl.Cl` [Compound 32b, 5-(4-Aminobutyl)-N^4-butyl-6-phenylpyrimidine-2,4-diamine dihydrochloride], the “cytokine and chemokine induction (in words)” value is on record as “significantly weaker”.

A further test deals with CD80 expression in the monocytes (human whole blood). Briefly: Flow-cytometric immunostimulation: CD80 upregulation in human whole blood. It counts as cell-based. As to conditions: 16 h, CD80-PE-Cy7 MFI. How it is done: Flow-Cytometric Immunostimulation Experiments:
Cell surface marker upregulation was determined by flow cytometry using protocols published by us previously. Briefly, heparin-anticoagulated whole blood samples were obtained by venipuncture from healthy human volunteers with informed consent and as per guidelines approved by the University of Minnesota Human Subjects Experimentation Committee. Serial dilutions of selected compounds were performed using a Bio-Tek Precision 2000 XS liquid handler in sterile 96-well polypropylene plates, to which were added 100 μL aliquots of anticoagulated whole human blood. The plates were incubated at 37° C. for 16 h. Negative (DMSO) controls were included in each experiment. The following fluorochrome-conjugated antibodies were used: CD14-FITC, CD40-APC, CD80-PE-Cy7, CD86-V450 (Becton-Dickinson Biosciences, San Jose, Calif.). Following incubation, 2.5 μg of each antibody was added to wells with a liquid handler, and incubated at 4° C. in the dark for 60 min. Following staining, erythrocytes were lysed and leukocytes fixed by mixing 200 μL of the samples in 800 μL pre-warmed Whole Blood Lyse/Fix Buffer (Becton-Dickinson Biosciences, San Jose, Calif.) in 96 deep-well plates. After washing the cells twice at 300 g for 10 minutes in RPMI, the cells were transferred to a 96-well plate. […]
Turning to `CCCCNc1nc(N)nc(C)c1I` [Compound 4b, N^4-Butyl-5-iodo-6-methylpyrimidine-2,4-diamine], the “activity in upregulating CD80” value was 1.5 μg/mL and 5 μM.

By EC50 is commonly meant the midpoint of the concentration-response curve.

(Values after US10662161B2, “Pyrimidines and uses thereof” (Regents of the University of Minnesota, priority 2017, dated 2020).)
